The values that follow come from US8563567B2, “Substituted heterocyclic compounds” (ArQule, Inc., priority 2009, dated 2013).

One test deals with T1, FGFR2 (N549H) (Homo sapiens, UniProt P21802, N549H).
T1 construct: purchased Millipore 14-742
Description: FGFR2 kinase activity assay (fluorescent ELISA). It is filed as biochemical. How it is done:
The enzymatic assays described herein are conducted according to the following procedures from commercially available reagents. In one, non limiting, example, a fluorescent ELISA assay is used to identify and characterize inhibitors of FGFR2 kinase as described herein. This heterogeneous assay utilizes a biotinylated peptide with a tyrosine motif as a substrate and an anti-phospho-tyrosine antibody to measure phosphorylation of the substrate. The reaction is initiated by adding the test compound, 37 μM Pyk2 substrate (Midwest Biotech, Cat. # MBT2383), 12.5 μM ATP (Roche, Cat. #11 140 965 001) and 0.5 μM FGFR2 enzyme (Millipore, Cat. #14-742) sequentially to a non-binding polypropylene V-well plate. All reagents are in an assay buffer consisting of: 50 mM Tris-HCL, 0.02 mg/ml BSA, 10 mM MgCl2, 0.1 mM Na3VO4, 1 mM EGTA, 75 μM ATP, 0.01% NP-40, 2 mM DTT and 10% glycerol. The reaction is incubated for 60 minutes. As the reaction proceeds, FGFR2 phosphorylates tyrosines in the peptide. The reaction mixture is then moved to a blocked streptavidin-coated Nunc Maxisorb plate (coated with 100 ng streptavidin from Pierce (Cat. #15-124) per well), allowing for the capture of the biotinylated peptide. Peptides are captured for 30 minutes at room temperature, the phosphorylation of peptides continues during this phase. The reaction is stopped by washing the streptavidin-coated plate 6 times with TBST. Phosphorylated peptide is detected by adding anti-phospho-tyrosine antibody (Cell Signaling, Cat. #9411, diluted 1:3000) to the streptavidin-coated plate. Unbound anti-phospho-tyrosine antibody is removed by washing the streptavidin-coated plate 6 times with TBST. Secondary detection is performed using alkaline phosphatase tagged goat anti-mouse antibody (Pierce, Cat. #31320, diluted 1:4000) for one hour. Unbound secondary antibody is removed by washing the streptavidin-coated plate 6 times with TBST. The fluorescent readout is initiated by adding to the streptavidin-coated plate Promega Attophos substrate (Promega, Cat. # S1000, dilution=6 mg/10 ml), which, when dephosphorylated by alkaline phosphatase, emits a fluorescent signal of 595 nm in wavelength when excited by a signal of 400 nm in wavelength. The reading of the 595 nm signal is done on the Perkin Elmer Envision system. Compounds which prevent FGFR2 from phosphorylating the peptide result in a lower fluorescent signal. The 595 nm fluorescent signal is directly proportional to the activity of FGFR2. Thus, the inhibition of FGFR2 by compounds is monitored by the decrease in the 595 nm fluorescent signal.

A further test relates to MDA-MB-231. In words: MTS assay, MDA-MB-231. As to conditions: Homo sapiens, MDA-MB-231, 72 h. It is filed as cell-based. How it is done:
(§1) Cells were maintained at 37° C., 5% CO2 in RPMI media supplemented with 1% fetal bovine serum, penicillin/streptomycin and fungizone (Invitrogen). Cells were seeded into 96-well tissue culture plates at 3000 per well and cultured at 37° C. for 18 h. Test compounds were dissolved and diluted to 300× in DMSO then diluted 1:40 in DMEM. Cells were incubated with test compounds for 72 hours followed by incubation with tetrazolium compound (3-(4,5-dimethylthiazol-2-yl)-5-(3-carboxymethoxyphenyl)-2-(4-sulfophenyl)-2H-tetrazolium, inner salt; MTS) and the electron coupling reagent, phenazine methosulfate (PMS) for 4 hours. […] The ability of compounds to inhibit cell growth in this assay is correlated with the reduction of dehydrogenase enzyme activity found in metabolically active cells. The measurement of the absorbance of the formazan was assessed using an ENVISION™ (Perkin Elmer) microplate reader at 492 nm. The calculated IC50 value is the concentration of the test compound that causes a 50% decrease in the absorbance.
(In general: Tetrazolium assays rely on reduction of a dye to a coloured formazan, in cell work by metabolically active cells.)

Another test has as its system DLD-1. In words: MTS assay, DLD-1. It is filed as cell-based. To be noted: Homo sapiens, DLD-1, 72 h. As to the method: as §1

What is called inhibition is the change of the read-out against control, counted positive when it falls. The low end stands for a response near the control, the high end for a response far below the control.

T1 sequence (P21802 22-821 N549H): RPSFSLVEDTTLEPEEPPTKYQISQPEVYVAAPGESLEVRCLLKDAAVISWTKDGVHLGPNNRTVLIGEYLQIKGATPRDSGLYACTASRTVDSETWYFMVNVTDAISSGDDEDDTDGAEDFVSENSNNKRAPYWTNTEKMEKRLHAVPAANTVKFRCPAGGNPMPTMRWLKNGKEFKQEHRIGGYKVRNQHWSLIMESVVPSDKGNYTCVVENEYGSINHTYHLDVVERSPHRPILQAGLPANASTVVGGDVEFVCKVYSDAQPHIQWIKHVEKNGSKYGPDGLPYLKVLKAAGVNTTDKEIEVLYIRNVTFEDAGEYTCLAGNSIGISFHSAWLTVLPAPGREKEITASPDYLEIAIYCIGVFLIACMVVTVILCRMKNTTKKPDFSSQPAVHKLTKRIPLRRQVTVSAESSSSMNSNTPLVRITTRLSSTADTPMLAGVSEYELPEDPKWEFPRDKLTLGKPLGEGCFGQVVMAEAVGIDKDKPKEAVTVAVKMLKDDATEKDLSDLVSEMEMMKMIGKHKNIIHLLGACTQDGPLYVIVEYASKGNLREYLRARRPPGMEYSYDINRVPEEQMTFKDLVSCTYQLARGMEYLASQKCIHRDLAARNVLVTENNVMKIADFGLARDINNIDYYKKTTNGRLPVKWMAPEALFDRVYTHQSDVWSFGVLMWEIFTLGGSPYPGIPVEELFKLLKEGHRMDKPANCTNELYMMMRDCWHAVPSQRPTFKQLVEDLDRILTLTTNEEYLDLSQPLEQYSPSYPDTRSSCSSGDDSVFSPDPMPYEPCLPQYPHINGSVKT

On FGFR2 (N549H), `CCOC(=O)NC(=O)N1CCC(CNc2nccc(-c3cn4c5c(cccc35)CCC4)n2)CC1` [Compound 41, ethyl 4-((4-(5,6-dihydro-4H-pyrrolo[3,2,1-ij]quinolin-1-yl)pyrimidin-2-ylamino)methyl)piperidine-1-carbonylcarbamate] gave an inhibition at 30 µM of 68%. For the same compound, the inhibition at 10 µM with MDA-MB-231 came to 33%.

As for `Cc1nnc(-c2cn3c4c(cccc24)CCC3)o1` [Compound 56, 1-(5-methyl-1,3,4-oxadiazol-2-yl)-5,6-dihydro-4H-pyrrolo[3,2,1-ij]quinoline], the inhibition at 10 µM with MDA-MB-231 worked out at 77%; in the test on DLD-1, 94%.

On to `CC(C)(C)NC(=O)N1CCC(CNc2nccc(-c3cn4c5c(cccc35)CCC4)n2)CC1` [Compound 52, N-tert-butyl-4-((4-(5,6-dihydro-4H-pyrrolo[3,2,1-ij]quinolin-1-yl)pyrimidin-2-ylamino)methyl)piperidine-1-carboxamide], for which, on FGFR2 (N549H), the inhibition at 30 µM was 51%. In the test on DLD-1, this compound registered an inhibition at 10 µM of 55%.

`CCCNC(=O)N1CCC(CNc2nccc(-c3cn4c5c(cccc35)CCC4)n2)CC1` [Compound 43, 4-((4-(5,6-dihydro-4H-pyrrolo[3,2,1-ij]quinolin-1-yl)pyrimidin-2-ylamino)methyl)-N-propylpiperidine-1-carboxamide] registered an inhibition at 30 µM on FGFR2 (N549H) of 65%. The inhibition at 10 µM with MDA-MB-231 is 43%; with DLD-1 it was 86%.

On FGFR2 (N549H), `COc1ccccc1C(=O)N1CCC(CNc2nccc(-c3cn4c5c(cccc35)CCC4)n2)CC1` [Compound 54, (4-((4-(5,6-dihydro-4H-pyrrolo[3,2,1-ij]quinolin-1-yl)pyrimidin-2-ylamino)methyl)piperidin-1-yl)(2-methoxyphenyl)methanone] returned an inhibition at 30 µM of 46%. In addition, the inhibition at 10 µM with MDA-MB-231 turned out to be 37%; in the test on DLD-1 it was 95%.

As to `COc1ccc(NC(=O)N2CCC(CNc3nccc(-c4cn5c6c(cccc46)CCC5)n3)CC2)cc1` [Compound 38, 4-((4-(5,6-dihydro-4H-pyrrolo[3,2,1-ij]quinolin-1-yl)pyrimidin-2-ylamino)methyl)-N-(4-methoxyphenyl)piperidine-1-carboxamide], the inhibition at 30 µM on FGFR2 (N549H) is 79%. Moreover, the results for the inhibition at 10 µM with MDA-MB-231 and in the test with DLD-1 were 98% and 97%, respectively.

For `CCOC(=O)CNC(=O)N1CCC(CNc2nccc(-c3cn4c5c(cccc35)CCC4)n2)CC1` [Compound 34, ethyl 2-(4-((4-(5,6-dihydro-4H-pyrrolo[3,2,1-ij]quinolin-1-yl)pyrimidin-2-ylamino)methyl)piperidine-1-carboxamido)acetate], the inhibition at 30 µM against FGFR2 (N549H) stood at 60%. The compound further registered an inhibition at 10 µM with DLD-1 of 65%.

`CC(=O)c1ccccc1NC(=O)N1CCC(CNc2nccc(-c3cn4c5c(cccc35)CCC4)n2)CC1` [Compound 51, N-(2-acetylphenyl)-4-((4-(5,6-dihydro-4H-pyrrolo[3,2,1-ij]quinolin-1-yl)pyrimidin-2-ylamino)methyl)piperidine-1-carboxamide]: at 30 µM the inhibition against FGFR2 (N549H) was 52%. Besides, the figures for the inhibition at 10 µM in the test on MDA-MB-231 and in the test on DLD-1 were 72% and 97%, respectively.

Consider `O=C(Nc1ccc(Cl)cc1)N1CCC(CNc2nccc(-c3cn4c5c(cccc35)CCC4)n2)CC1` [Compound 44, N-(4-chlorophenyl)-4-((4-(5,6-dihydro-4H-pyrrolo[3,2,1-ij]quinolin-1-yl)pyrimidin-2-ylamino)methyl)piperidine-1-carboxamide], for which, on FGFR2 (N549H), the inhibition at 30 µM turned out to be 65%. Also, the inhibition at 10 µM is 84% in the test with MDA-MB-231 and 97% in the test with DLD-1.

For `O=C(Nc1ccc(-c2ccccc2)cc1)N1CCC(CNc2nccc(-c3cn4c5c(cccc35)CCC4)n2)CC1` [Compound 39, N-(biphenyl-4-yl)-4-((4-(5,6-dihydro-4H-pyrrolo[3,2,1-ij]quinolin-1-yl)pyrimidin-2-ylamino)methyl)piperidine-1-carboxamide], the inhibition at 30 µM against FGFR2 (N549H) came to 71%. Moreover, the inhibition at 10 µM in the test on MDA-MB-231 stood at 31%; in the test with DLD-1, 52%.

As for `O=C(NCc1ccccc1)N1CCC(CNc2nccc(-c3cn4c5c(cccc35)CCC4)n2)CC1` [Compound 47, N-benzyl-4-((4-(5,6-dihydro-4H-pyrrolo[3,2,1-ij]quinolin-1-yl)pyrimidin-2-ylamino)methyl)piperidine-1-carboxamide], at 30 µM the inhibition against FGFR2 (N549H) was 60%. The inhibition at 10 µM worked out at 97% in the test with MDA-MB-231 and 98% with DLD-1.

In the case of `O=C(Nc1ccccc1)N1CCC(CNc2nccc(-c3cn4c5c(cccc35)CCC4)n2)CC1` [Compound 42, 4-((4-(5,6-dihydro-4H-pyrrolo[3,2,1-ij]quinolin-1-yl)pyrimidin-2-ylamino)methyl)-N-phenylpiperidine-1-carboxamide], at 30 µM the inhibition on FGFR2 (N549H) was 66%. Besides, the inhibition at 10 µM in the test on MDA-MB-231 was found to be 79%; in the test with DLD-1, 97%.

On to `Clc1ccc(-c2nnc(-c3cn4c5c(cccc35)CCC4)o2)cc1` [Compound 63, 1-[5-(4-chlorophenyl)-1,3,4-oxadiazol-2-yl]-5,6-dihydro-4H-pyrrolo[3,2,1-ij]quinoline], for which the inhibition at 10 µM in the test on MDA-MB-231 stood at 100%; with DLD-1 it was 98%.

`c1cc2c3c(c1)c(-c1nnnn1CC1CCNCC1)cn3CCC2` [Compound 81, 1-[1-(piperidin-4-ylmethyl)-1H-tetrazol-5-yl]-5,6-dihydro-4H-pyrrolo[3,2,1-ij]quinoline]: at FGFR2 (N549H), the inhibition at 30 µM stood at 91%.

With `c1cc2c3c(c1)c(-c1nnnn1C1CCCNC1)cn3CCC2` (stereo not shown) [Compound 83, 1-(1-piperidin-3-yl-1H-tetrazol-5-yl)-5,6-dihydro-4H-pyrrolo[3,2,1-ij]quinoline], at 30 µM the inhibition on FGFR2 (N549H) was 84%.

`CC(C)(C)C(=O)N1CCC(CNc2nccc(-c3cn4c5c(cccc35)CCC4)n2)CC1` [Compound 36, 1-(4-((4-(5,6-dihydro-4H-pyrrolo[3,2,1-ij]quinolin-1-yl)pyrimidin-2-ylamino)methyl)piperidin-1-yl)-2,2-dimethylpropan-1-one] came in with an inhibition at 10 µM with DLD-1 of 85%.

Consider `CC(C)NC(=O)N1CCC(CNc2nccc(-c3cn4c5c(cccc35)CCC4)n2)CC1` [Compound 46, 4-((4-(5,6-dihydro-4H pyrrolo[3,2,1-ij]quinolin-1-yl)pyrimidin-2-ylamino)methyl)-N-isopropylpiperidine-1-carboxamide], for which the inhibition at 30 µM on FGFR2 (N549H) is 61%. The inhibition at 10 µM with DLD-1 is 52%.

`NC1CCC(n2nnnc2-c2cn3c4c(cccc24)CCC3)CC1` (stereo not shown) [Compound 82, 4-[5-(5,6-dihydro-4H-pyrrolo[3,2,1-ij]quinolin-1-yl)-1H-tetrazol-1-yl]cyclohexanamine] displayed an inhibition at 30 µM against FGFR2 (N549H) of 91%.

Consider `O=S(=O)(c1ccc(Cl)cc1)N1CCC(CNc2nccc(-c3cn4c5c(cccc35)CCC4)n2)CC1` [Compound 35, N-((1-(4-chlorophenylsulfonyl)piperidin-4-yl)methyl)-4-(5,6-dihydro-4H-pyrrolo[3,2,1-ij]quinolin-1-yl)pyrimidin-2-amine], for which the inhibition at 10 µM came to 98% with MDA-MB-231 and 97% in the test on DLD-1.

`CS(=O)(=O)N1CCC(CNc2nccc(-c3cn4c5c(cccc35)CCC4)n2)CC1` [Compound 48, 4-(5,6-dihydro-4H-pyrrolo[3,2,1-ij]quinolin-1-yl)-N-((1-(methylsulfonyl)piperidin-4-yl)methyl)pyrimidin-2-amine] showed an inhibition at 30 µM on FGFR2 (N549H) of 59%.
